The source of these data is ChEMBL document CHEMBL5352423, “Discovery of potent human dihydroorotate dehydrogenase inhibitors based on a benzophenone scaffold” (Eur J Med Chem, 2022).

Molecules are shown by their SMILES. The source made the active and inactive calls. The rule behind the calls is not given here.

A short description of series [1]: Toxicity in NOD-SCID mouse xenografted with human HCT-116 cells assessed as splenomegaly at 1.5 mg/kg, po administered for 21 days. The following applies: in vivo, 504 h, time 21 day. The class given is organism-based.
The nature of series [2]: Toxicity in NOD-SCID mouse xenografted with human HCT-116 cells assessed as change in body weight at 1.5 mg/kg, po administered for 24 days. The class given is organism-based. The following applies: in vivo, 576 h, time 24 day.
Series [3] can be described thus: Toxicity in NOD-SCID mouse xenografted with human Raji cells assessed as death at 1.5 mg/kg, po administered for 24 days. The following applies: in vivo, 576 h, time 24 day. Type of series: organism-based.
The test system of series [4] is HCT-116. The experiment in a line: Antitumor activity against human HCT-116 cells xenografted in NOD-SCID mouse assessed as tumor growth inhibition at 1.5 mg/kg, po administered for 24 days relative to control. Type of series: functional. The following applies: HCT-116, 576 h, time 24 day, read-out: TGI.
Series [5] concerns Raji. The experiment in a line: animal or person. The following applies: Mus musculus, po, 576 h, read-out: TGI.
Description: Antitumor activity against human Raji cells xenografted in NOD-SCID mouse assessed as tumor growth inhibition at 1.5 mg/kg, po administered for 24 days relative to control
Series [6] in a line: Toxicity in NOD-SCID mouse xenografted with human Raji cells assessed as change in body weight at 1.5 mg/kg, po administered for 24 days. Type of series: organism-based. As to conditions: in vivo, 576 h, time 24 day.
Series [7] deals with Mus musculus. The series can be described thus: Immunosuppressive activity in NOD-SCID mouse xenografted with human HCT-116 cells at 1.5 mg/kg, po for 21 days. Type of series: functional, organism-based. As to conditions: time 21.0 day.

`CCn1c(CO)nn(-c2cc(O[C@@H](C)C(F)(F)F)c(C(=O)Nc3c(F)cccc3Cl)cc2F)c1=O`: the Activity entry is listed as “Toxic” in series [1], “Toxic” in series [2], “Non-Toxic” in series [3] and “Non-Toxic” in series [6]. Besides, the inhibition in vivo at 1.5 mg/kg in series [4] turned out to be 44.4%; in series [5] it was 71.4%. In series [7], the outcome was Active.
